Here are results for one compound from US9241928B2, “Antimicrobial compounds” (The General Hospital Corporation, priority 2009, dated 2016).

Structures are written as SMILES. Bounds are passed on as bounds.

Assay [1] concerns P. aeruginosa strain PA14 infection in Caenorhabditis elegans. The assay can be described thus: Liquid assay for PA14 infection of C. elegans. Type of assay: in vivo. The protocol: A liquid assay for PA14 infection of C. elegans in a 96-well plate format was developed. In brief, temperature-sterile glp-4 and glp-4;sek-1 worms were synchronized according to standard protocols. L1 larvae were plated, incubated for 16 hours at 15° C., and then for an additional 48 hours at […], which brought them to a young adult stage. In parallel, PA14 bacteria were grown overnight prior to being plated on SK medium plates (see Tan et al., Proc. Natl. Acad. Sci., 96(2): 715-720). PA14-inoculated plates were incubated for 24 hours at 37° C. prior to an 18 hours incubation at 25° C. Subsequently, bacteria were removed from plates and resuspended in S Basal media (see Stiernagle, (2006) “Maintenance of C. elegans” WormBook, ed. The C. elegans. Research Community http://www.wormbook.org/). 96-well polystyrene plates were prepared with a medium containing either 20% SK and 80% S Basal or 50% SK and 50% S Basal, with a bacterial density of OD600=0.03. […] Dispensation of 25 young adult glp-4 or glp-4; sek-1 worms to each well using a COPAS BioSort robot brought the final total volume to […]. After worms were added, each plate was sealed with a gas permeable membrane and incubated for 48 hours at 25° C. […] Worms were stained for 18 hours at 20° C. and each well was photographed using bright-field and red fluorescence channels with a Molecular Devices Discovery-1 Microscope.

Assay [2] relates to MRSA infection in Caenorhabditis elegans. The assay can be described thus: MRSA infection assay in C. elegans (liquid). Type of assay: in vivo. The note with it: 6.25 and 12.5 μg/ml, 5 days. The text has this: To screen/test candidate compounds for their efficacy against Methicillin-resistant Staphylococcus aureus (MRSA) using Caenorhabditis elegans (C. elegans), a liquid high throughput screening assay was developed. In contrast to the Enterococcus faecalis infection assay, where worms are pre-infected with E. faecalis on agar prior to the start of the screening assay and then infected worms are transferred to microtiter plates using the COPAS BioSort robot, the infection of worms with MRSA occurred directly in the liquid medium. This liquid infection protocol with MRSA was developed because the COPAS BioSort, the large particle sorter used to dispense worms into multiwell plates, is a pressurized system that can generate aerosols. Because MRSA is a potentially dangerous pathogen for immune competent individuals, sorting MRSA-infected worms in the COPAS BioSort was deemed to be potentially hazardous.
The MRSA infection assay was carried out by incubating C. elegans with three MRSA strains (i.e., USA100, USA400 and MW2) in 96 or 384-well microtiter plates and assessing whether worms were live or dead after a 5 day incubation.
The MRSA infection assay was performed as follows: Worms were grown on agar using non-pathogenic E. coli as a food source until they reached the L4/young adult stage. A small volume of M9 buffer was added to the agar plates to float worms gently off the food source. The worms were then transferred into a large conical tube and washed 2 times by allowing worms to settle, aspirating the supernatant and adding fresh M9 buffer. 15 worms were then transferred using a COPAS BioSort large particle sorter into a 96-well plate containing […] of M9. […] After the worms were stained for 18 hours, images of the plates were acquired in bright field and red fluorescence channels using a Molecular Devices Discovery-1 or ImageXpress automated microscopy system. The total number of worms was counted in the bright field image and the number of dead animals are determined by positive SYTOX staining. […]

Regarding `NNc1ccc2c(Cl)cc(Cl)c(O)c2n1` [Compound 11], in assay [1] (3.125 μg/mL, glp-4 and glp-4;sek-1 worms, 48 hours), the “mortality of PA14-infected worms” value was at most 30%. In addition, in assay [1] (6.25 and 20 μg/mL versus 3.125 μg/mL), the “effect of increasing the dosage on efficacy” value is given as “did not increase its efficacy”. The “survival of MRSA-infected worms (FIG. 4)” value in assay [2] is reported as “resulted in survival of MRSA-infected worms”.
